Results as given in BindingDB's records for doi:10.1021/jm0609622 (Schering-Plough Research Institute, 2006).

Assay: Inhibition of CXCL1-induced human neutrophil chemotaxis

Row | IC50 [nM] | Compound
1 | 2.4 | Cc1ccc([C@@H](C)Nc2c(Nc3cccc(C(=O)N(C)C)c3O)c(=O)c2=O)o1 [(R)-2-hydroxy-N,N-dimethyl-3-(2-(1-(5-methylfuran-2-yl)ethylamino)-3,4-dioxocyclobut-1-enylamino)benzamide]
2 | 48 | CC[C@@H](Nc1c(Nc2cccc(C(=O)N(C)C)c2O)c(=O)c1=O)c1ccccc1 [(R)-3-(3,4-dioxo-2-(1-phenylpropylamino)cyclobut-1-enylamino)-2-hydroxy-N,N-dimethylbenzamide]
